In ChEMBL document CHEMBL1201862, “PubChem BioAssay data set” (2004):
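Protocol summary: plate cells (96-well), add compound at 5 concentrations, incubate 48 h, interpolate endpoints linearly. GI50 is the concentration that inhibits growth by half.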 Calls of active or inactive are those of the source. Rule as the data show it: active = GI50 up to about 1.1 µM and inactive = higher.

Key:
Test in all cases: DTP human tumour cell line panel, 48 h
IGROV-1 = tested on: IGROV-1
MOLT-4 = tested on: MOLT-4
SK-MEL-28 = tested on: SK-MEL-28
SK-OV-3 = tested on: SK-OV-3
OVCAR-8 = tested on: OVCAR-8
M14 = tested on: M14
SK-MEL-2 = tested on: SK-MEL-2
SNB-19 = tested on: SNB-19
HOP-62 = tested on: HOP-62
HCC 2998 = tested on: HCC 2998
U-251 = tested on: U-251
CCRF-CEM = tested on: CCRF-CEM
SN12C = tested on: SN12C
HCT-116 = tested on: HCT-116
RXF 393 = tested on: RXF 393
UO-31 = tested on: UO-31
OVCAR-4 = tested on: OVCAR-4
HCT-15 = tested on: HCT-15
NCI/ADR-RES = tested on: NCI/ADR-RES
MCF7 = tested on: MCF7

| Structure (SMILES) | GI50 (IGROV-1) | GI50 (MOLT-4) | GI50 (SK-MEL-28) | GI50 (SK-OV-3) | GI50 (OVCAR-8) | GI50 (M14) | GI50 (SK-MEL-2) | GI50 (SNB-19) | GI50 (HOP-62) | GI50 (HCC 2998) | GI50 (U-251) | GI50 (CCRF-CEM) | GI50 (SN12C) | GI50 (HCT-116) | GI50 (RXF 393) | GI50 (UO-31) | GI50 (OVCAR-4) | GI50 (HCT-15) | GI50 (NCI/ADR-RES) | GI50 (MCF7) |
| --- | --- | --- | --- | --- | --- | --- | --- | --- | --- | --- | --- | --- | --- | --- | --- | --- | --- | --- | --- | --- |
| COc1ccc([C@H]2c3cc4c(cc3OC(O)(CO)[C@H]2C(=O)O)OCO4)c(OC)c1.COc1ccc([C@H]2c3cc4c(cc3OC3(O)COC(=O)[C@@H]23)OCO4)c(OC)c1 (some centres undefined) | > 100 µM (inactive) | 61.5 µM (inactive) | 35.8 µM (inactive) | > 100 µM (inactive) | > 100 µM (inactive) | > 100 µM (inactive) | > 100 µM (inactive) | > 100 µM (inactive) | > 100 µM (inactive) | > 100 µM (inactive) | 41.9 µM (inactive) | 37.3 µM (inactive) | > 100 µM (inactive) | > 100 µM (inactive) | > 100 µM (inactive) | > 100 µM (inactive) | > 100 µM (inactive) | 37.6 µM |  |  |
| COS(=O)c1cc(Cl)cc(Cl)c1O (centres undefined) |  | > 100 µM (inactive) | > 100 µM (inactive) | 81.7 µM (inactive) |  | > 100 µM (inactive) | > 100 µM (inactive) | > 100 µM (inactive) | > 100 µM (inactive) | > 100 µM (inactive) | > 100 µM (inactive) | > 100 µM (inactive) | > 100 µM (inactive) | > 100 µM (inactive) | > 100 µM (inactive) | > 100 µM (inactive) | > 100 µM (inactive) |  |  |  |
| CC1(C)OCC(CO)(CO)CO1 |  | > 100 µM (inactive) | > 100 µM (inactive) | > 100 µM (inactive) | > 100 µM (inactive) | > 100 µM (inactive) |  | > 100 µM (inactive) |  | > 100 µM (inactive) | > 100 µM (inactive) | > 100 µM (inactive) | > 100 µM (inactive) | > 100 µM (inactive) | > 100 µM (inactive) | > 100 µM (inactive) | > 100 µM (inactive) | > 100 µM | > 100 µM (inactive) | > 100 µM (inactive) |
| COc1ccc(C(=O)C2CC3(CCC2(O)c2ccc(OC)cc2)CC(=O)Nc2ccccc2C3=O)cc1 (centres undefined) | > 100 µM (inactive) |  |  | > 100 µM (inactive) | > 100 µM (inactive) | > 100 µM (inactive) | > 100 µM (inactive) |  | > 100 µM (inactive) | 79.3 µM (inactive) | 63.7 µM (inactive) | 4.38 µM (inactive) | > 100 µM (inactive) | 28.4 µM (inactive) | > 100 µM (inactive) | 18.1 µM (inactive) | 1.55 µM (inactive) | 5.85 µM | > 100 µM (inactive) | 3.03 µM (inactive) |
| CCOC(=O)Cc1cnc(NC(NC(=O)CC)(C(F)(F)F)C(F)(F)F)s1 |  | > 100 µM (inactive) | > 100 µM (inactive) | > 100 µM (inactive) |  | > 100 µM (inactive) | > 100 µM (inactive) | > 100 µM (inactive) | > 100 µM (inactive) | 93.3 µM (inactive) | > 100 µM (inactive) | > 100 µM (inactive) | > 100 µM (inactive) | > 100 µM (inactive) | > 100 µM (inactive) | > 100 µM (inactive) |  | > 100 µM |  | > 100 µM (inactive) |
| COc1cc(/N=N\c2cccc(S(=O)(=O)O)c2)ccc1/N=N\c1ccc(/C=C/c2ccc(-n3on3-c3ccc(/C=C/c4ccc(/N=N/c5ccc(/N=N\c6cccc(S(=O)(=O)O)c6)cc5OC)cc4S(=O)(=O)O)c(S(=O)(=O)O)c3)cc2S(=O)(=O)O)c(S(=O)(=O)O)c1 | > 100 µM (inactive) | > 100 µM (inactive) | > 100 µM (inactive) | > 100 µM (inactive) | > 100 µM (inactive) |  | > 100 µM (inactive) | > 100 µM (inactive) | > 100 µM (inactive) | > 100 µM (inactive) | > 100 µM (inactive) | > 100 µM (inactive) | > 100 µM (inactive) | > 100 µM (inactive) | > 100 µM (inactive) | > 100 µM (inactive) | > 100 µM (inactive) | > 100 µM | > 100 µM (inactive) | > 100 µM (inactive) |
| COc1cc(C2c3cc4c(cc3[C@@H](Nc3ccc(Oc5ccccc5)cc3)C3COC(=O)[C@H]23)OCO4)cc(OC)c1O (some centres undefined) | 4.38 µM (inactive) | 0.329 µM (active) | > 42.3 µM (inactive) | 4.93 µM (inactive) | 4.5 µM (inactive) |  | > 29.9 µM (inactive) | 3.27 µM (inactive) | 0.851 µM (active) | 1.64 µM (inactive) | 2.36 µM (inactive) | 0.431 µM (active) | 2.7 µM (inactive) | 0.979 µM (active) | 1.29 µM (inactive) | 2.59 µM (inactive) | 7.11 µM (inactive) | 1.3 µM | 9.02 µM (inactive) | 0.4 µM (active) |
| Oc1nc2ccccc2c2oc3ccccc3c12 | > 100 µM (inactive) | > 100 µM (inactive) | > 100 µM (inactive) | 76 µM (inactive) | > 100 µM (inactive) | > 100 µM (inactive) |  | > 100 µM (inactive) | 88.9 µM (inactive) | > 100 µM (inactive) | > 100 µM (inactive) | > 100 µM (inactive) | > 100 µM (inactive) |  | 82 µM (inactive) | > 100 µM (inactive) | > 100 µM (inactive) | > 100 µM | > 100 µM (inactive) | > 100 µM (inactive) |
